The record followed here is US12077503B2, “Substituted cyclic amides and their use as herbicides” (FMC CORPORATION, priority 2015, dated 2024).

Assay type in all cases: in vivo
The test system of test [1] is redroot pigweed (Amaranthus retroflexus). In words: Test G Post-Emergence Protocol. The settings on record: Amaranthus retroflexus, post-emergence, 312 h; for pest or weed control at 15.625 g/ha: 15.625 g ai/ha, evaluated after 13 days (100=total damage to plant; 0=no damage to plant), read-out: Pigweed, Redroot damage rating; for pest or weed control at 62.5 g/ha: 62.5 g ai/ha, read-out: Pigweed, Redroot damage rating (100=total damage to plant; 0=no damage to plant); for pest or weed control at 62.5 g/ha / pest or weed control at 250 g/ha: evaluated after 13 days; for pest or weed control at 250 g/ha: 250 g ai/ha, read-out: damage to plant, Pigweed, Redroot (100=total damage to plant; 0=no damage to plant). On the procedure: (§1) Seeds of corn (Zea mays), giant foxtail (Setaria faberi), barnyardgrass (Echinochloa crus-galli), ivy-leaved morning glory (Ipomoea hederacea), redroot pigweed (Amaranthus retroflexus) and velvetleaf (Abutilon theophrasti) were sown in standard soil in pots. After cultivation for 8 days under controlled conditions in a glasshouse (at 24/16° C., day/night; 14 hours light; 65% humidity), the plants were sprayed with an aqueous spray solution derived from the formulation of the technical active ingredient in acetone/water (50:50) solution containing 0.5% Tween 20 (polyoxyethylene sorbitan monolaurate, CAS RN 9005-64-5) to give a final dose of 15.625, 62.5 or 250 g/ha of test compound.
(§2) The test plants were then grown on under controlled conditions in a glasshouse (at 24/16° C., day/night; 14 hours light; 65% humidity) and watered twice daily. After 13 days the test was evaluated (100=total damage to plant; 0=no damage to plant). A dash (-) means no test result.

Test [2] concerns giant foxtail (Setaria faberi). In words: Test G Post-Emergence Protocol. Particulars: Setaria faberi, post-emergence, 312 h; for pest or weed control at 15.625 g/ha: 15.625 g ai/ha, evaluated after 13 days (100=total damage to plant; 0=no damage to plant), read-out: Foxtail, Giant damage rating; for pest or weed control at 62.5 g/ha: 62.5 g ai/ha, read-out: Foxtail, Giant damage rating (100=total damage to plant; 0=no damage to plant); for pest or weed control at 62.5 g/ha / pest or weed control at 250 g/ha: evaluated after 13 days; for pest or weed control at 250 g/ha: 250 g ai/ha, read-out: damage to plant, Foxtail, Giant (100=total damage to plant; 0=no damage to plant). On the procedure:
as §1, §2

Test [3] deals with velvetleaf (Abutilon theophrasti). In words: Test G Post-Emergence Protocol. Particulars: Abutilon theophrasti, post-emergence, 312 h; for pest or weed control at 15.625 g/ha: 15.625 g ai/ha, evaluated after 13 days (100=total damage to plant; 0=no damage to plant), read-out: Velvetleaf damage rating; for pest or weed control at 62.5 g/ha: 62.5 g ai/ha, read-out: Velvetleaf damage rating (100=total damage to plant; 0=no damage to plant); for pest or weed control at 62.5 g/ha / pest or weed control at 250 g/ha: evaluated after 13 days; for pest or weed control at 250 g/ha: 250 g ai/ha, read-out: damage to plant, Velvetleaf (100=total damage to plant; 0=no damage to plant). The procedure:
as §1, §2

A further test deals with corn (Zea mays). In words: Test G Post-Emergence Protocol. The settings on record: Zea mays, post-emergence, 312 h; for plant injury at 15.625 g/ha: 15.625 g ai/ha, evaluated after 13 days (100=total damage to plant; 0=no damage to plant), read-out: Corn damage rating; for plant injury at 62.5 g/ha: 62.5 g ai/ha, read-out: Corn damage rating (100=total damage to plant; 0=no damage to plant); for plant injury at 62.5 g/ha / plant injury at 250 g/ha: evaluated after 13 days; for plant injury at 250 g/ha: 250 g ai/ha, read-out: damage to plant, Corn (100=total damage to plant; 0=no damage to plant). On the procedure:
as §1, §2

In test [4] the test system is ivy-leaved morning glory (Ipomoea hederacea). The test can be described thus: Test G Post-Emergence Protocol. The settings on record: Ipomoea, post-emergence, 312 h; for pest or weed control at 15.625 g/ha: 15.625 g ai/ha, evaluated after 13 days (100=total damage to plant; 0=no damage to plant), read-out: Morningglory, Ivy-leaved damage rating; for pest or weed control at 62.5 g/ha: 62.5 g ai/ha, read-out: Morningglory, Ivy-leaved damage rating (100=total damage to plant; 0=no damage to plant); for pest or weed control at 62.5 g/ha / pest or weed control at 250 g/ha: evaluated after 13 days; for pest or weed control at 250 g/ha: 250 g ai/ha, read-out: damage to plant, Morningglory, Ivy-leaved (100=total damage to plant; 0=no damage to plant). The procedure: as §1, §2

The test system of test [5] is barnyardgrass (Echinochloa crus-galli). The test can be described thus: Test G Post-Emergence Protocol. Particulars: Echinochloa crus-galli, post-emergence, 312 h; for pest or weed control at 15.625 g/ha: 15.625 g ai/ha, evaluated after 13 days (100=total damage to plant; 0=no damage to plant), read-out: Barnyardgrass damage rating; for pest or weed control at 62.5 g/ha: 62.5 g ai/ha, read-out: Barnyardgrass damage rating (100=total damage to plant; 0=no damage to plant); for pest or weed control at 62.5 g/ha / pest or weed control at 250 g/ha: evaluated after 13 days; for pest or weed control at 250 g/ha: 250 g ai/ha, read-out: damage to plant, Barnyardgrass (100=total damage to plant; 0=no damage to plant). The procedure:
as §1, §2

A further test has as its system rice (Oryza sativa). The test can be described thus: Test C flooded paddy test. Particulars: Flood; for Plant response rating (scale of 0 to 100), Rice: 0 is no effect, 100 is complete control. In outline: (§3)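 Rice, small-flower umbrella sedge, ducksalad and barnyardgrass at the 2-leaf stage were flooded to 3 cm, and compound was applied into the paddy water. After 13 to 15 d in a greenhouse, plants were rated visually against controls on a 0 (no effect) to 100 (complete control) scale.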

The subject of test [6] is ducksalad (Heteranthera limosa). In words: Test C flooded paddy test. Particulars: Flood; for Plant response rating (scale of 0 to 100), Ducksalad: 0 is no effect, 100 is complete control. In outline: as §3
Test [7] relates to barnyardgrass (Echinochloa crus-galli). In words: Test C flooded paddy test. Particulars: Flood; for Plant response rating (scale of 0 to 100), Barnyardgrass: 0 is no effect, 100 is complete control. In outline: as §3
For test [8], the system named is waterplantain (common waterplantain, Alisma plantago-aquatica). The test can be described thus: Test F flooded paddy test. Particulars: Flood. From the text:
(§4) Plant species in the flooded paddy test consisted of one stand of 9 or 10 water seeded rice seedlings (Rice, W. S. Jap, Oryza sativa cv. ‘Japonica—M202’ or Rice, W. S. Ind, ‘Indica’), and two stands of 3 or 4 transplanted rice seedlings (Oryza sativa cv. ‘Japonica—M202’), Monochoria (Monochoria vaginalis), sedge, umbrella (small-flower umbrella sedge, Cyperus difformis), hardstem bulrush (Scirpus juncoides), redstem (purple redstem, Ammannia coccinea), rice flatsedge (Cyperus iria), bearded sprangletop (Leptochloa fascicularis), barnyardgrass (Echinochloa crus-galli), waterplantain (common waterplantain, Alisma plantago-aquatica), and late watergrass (Echinochloa oryzicola) grown to the 2 to 2.5 leaf stage for testing. Potted plants were grown in a greenhouse with day/night temperature settings of 30/27° C., and supplemental balanced lighting was provided to maintain a 16-hour photoperiod. At time of treatment, test pots were flooded to 3 cm above the soil surface, treated by application of test compounds directly to the paddy water, and then maintained at that water depth for the duration of the test. Effects of treatments on rice and weeds were visually evaluated by comparison to untreated controls after 21 d. Plant response ratings, summarized in Table F, are based on a scale of 0 to 100 where 0 is no effect and 100 is complete control. A dash (-) response means no test result.

The test system of test [9] is redstem (purple redstem, Ammannia coccinea). The test can be described thus: Test F flooded paddy test. The settings on record: Flood.
Text: as §4

For test [10], the system named is water seeded rice seedlings (Rice, W. S. Jap, Oryza sativa cv. ‘Japonica—M202’). The test can be described thus: Test F flooded paddy test. The arrangement: key: 0 = no effect, 100 = complete control. The settings on record: Flood.
Text: as §4

For test [11], the system named is Monochoria (Monochoria vaginalis). The test can be described thus: Test F flooded paddy test. The arrangement: key: 0 = no effect, 100 = complete control. Particulars: Flood.
Text: as §4

Where [12] appears, read: 31 g ai/ha, scale 0 to 100 (0 no effect, 100 complete control), 13 to 15 d.

Consider `CN1C[C@H](c2ccc(Cl)cc2)[C@@H](C(=O)Nc2cccc(F)n2)C1=O` [Compound 1399], for which the pest or weed control at 15.625 g/ha in test [1] was found to be 0%; in [2] it was 60%; in [3], 0%; in test [4], 10%; in test [5] it was 40%. Besides, the pest or weed control at 62.5 g/ha in [1] is 20%; in [2], 80%; in test [3] it was 40%; in test [4], 30%; in test [5], 70%. The pest or weed control at 250 g/ha stood at 60% in test [1]; 80% in [2]; 40% in test [3]; 70% in [4]; 80% in test [5]. Further, the plant injury at 15.625 g/ha with corn (Zea mays) was 0%. Also, the plant injury at 62.5 g/ha in the test on corn (Zea mays) turned out to be 0%. Moreover, the plant injury at 250 g/ha in the test on corn (Zea mays) worked out at 30%.

For `CN1CC(c2ccc(F)c(C(F)(F)F)c2)C(C(=O)Nc2ccccc2S(C)(=O)=O)C1=O` (stereo not shown) [Compound 612], the “Plant response rating (scale of 0 to 100), Rice” value with rice (Oryza sativa) (31 g ai/ha) came out at 0; in the test on rice (Oryza sativa) (62 g ai/ha), 0; in the test with rice (Oryza sativa) (125 g ai/ha), 0; in the test on rice (Oryza sativa) (250 g ai/ha), 15. The “Plant response rating (scale of 0 to 100), Ducksalad” value turned out to be 0 in test [6] (31 g ai/ha), 0 in [6] (62 g ai/ha), 0 in test [6] (125 g ai/ha) and 55 in test [6] (250 g ai/ha). For the same compound, the “Plant response rating (scale of 0 to 100), Barnyardgrass” value in [7] (31 g ai/ha) came out at 0; in test [7] (62 g ai/ha), 0; in test [7] (125 g ai/ha), 0; in [7] (250 g ai/ha), 55.

Take `CN1CC(c2cccc(OC(F)F)c2)C(C(=O)Nc2ccc(F)cc2F)C1=O` (stereo not shown) [Compound 617]: the “Plant response rating: Waterplantain” value in [8] (32 g ai/ha) is listed as 0; in test [8] (64 g ai/ha), 75; in test [8] (125 g ai/ha) it was 85; in test [8] (250 g ai/ha), 90. In addition, the “Plant response rating: Redstem” value in test [9] (32 g ai/ha), in test [9] (64 g ai/ha), in [9] (125 g ai/ha) and in test [9] (250 g ai/ha) was 0 in each case. The “Plant response rating: Rice, Water Seeded” value amounted to 0 in test [10] (32 g ai/ha) and 60 in test [10] (250 g ai/ha). Moreover, the “Plant response rating: Rice, Water Seed.” value in test [10] (64 g ai/ha) was 0; in test [10] (125 g ai/ha), 20. Further, the “Plant response rating: Monochoria” value turned out to be 0 in test [11] (32 g ai/ha), 40 in test [11] (64 g ai/ha), 70 in [11] (125 g ai/ha) and 100 in test [11] (250 g ai/ha).

Turning to `CN1CC(c2cc(F)cc(F)c2)C(C(=O)Nc2cccc(F)c2F)C1=O` (stereo not shown) [Compound 644], the “Plant response rating, Rice” value in the test on rice (Oryza sativa) (setting [12]) is on record as 0. The “Plant response rating (scale of 0 to 100), Rice” value in the test on rice (Oryza sativa) (62 g ai/ha), in the test with rice (Oryza sativa) (125 g ai/ha) and with rice (Oryza sativa) (250 g ai/ha) was 0 each time. Besides, the “Plant response rating, Ducksalad” value in [6] (setting [12]) was 55. The “Plant response rating (scale of 0 to 100), Ducksalad” value in test [6] (62 g ai/ha) came to 65; in test [6] (125 g ai/ha), 100; in test [6] (250 g ai/ha), 100. Further, in [7] (setting [12]), the “Plant response rating, Barnyardgrass” value worked out at 40. Also, the “Plant response rating (scale of 0 to 100), Barnyardgrass” value in test [7] (62 g ai/ha) is recorded as 60; in [7] (125 g ai/ha), 75; in [7] (250 g ai/ha), 90.

For the compound `CN1C[C@H](c2ccc(C(F)(F)F)cc2)[C@@H](C(=O)Nc2cccnc2F)C1=O` [Compound 1396], the pest or weed control at 15.625 g/ha was determined as 70% in test [1]; 80% in [2]; 40% in [3]; 40% in test [4]; 80% in [5]. In addition, the pest or weed control at 62.5 g/ha in [1] turned out to be 70%; in test [2] it was 80%; in [3] it was 30%; in test [4] it was 60%; in test [5], 80%. Also, the pest or weed control at 250 g/ha in [1] was found to be 80%; in test [2], 80%; in [3] it was 60%; in test [4], 60%; in test [5] it was 80%. Moreover, in the test on corn (Zea mays), the plant injury at 15.625 g/ha was 70%. Moreover, in the test with corn (Zea mays), the plant injury at 62.5 g/ha amounted to 80%. In the test on corn (Zea mays), the plant injury at 250 g/ha turned out to be 70%.
